Data published in patent publication US20020042393A1, “Excipient” (priority 1998, published 2002).

What was measured:
[1] = Average particle size (sieving, 50% cumulative weight); format: physicochemical; settings: excipient powder
Procedure: Five grams of trehalose was sifted through screens having screen openings of 500 μm, 300 μm and 250 μm, respectively, and then sifted with Air Jet Sieve by using screens having screen openings of 150 μm, 75 μm, 45 μm, 38 μm and 32 μm, respectively. The oversize particle weight percentage [%] was calculated for each screen, and the average particle size is expressed as a particle size corresponding to a cumulative weight percentage of 50%.

[2] = Apparent specific volume; format: physicochemical; settings: excipient powder
From the text: The whole of 10 g of trehalose powder was gently poured into a 100-ml measuring cylinder without making an impact (in this case, a cylinder having an outside diameter smaller than the inside diameter of the measuring cylinder was placed in the measuring cylinder, and it was slowly lifted after pouring the trehalose), and the apparent specific volume was expressed as a value obtained by dividing the read volume by the weight of the trehalose.

[3] = Change in whiteness of excipient mixed with drug at 40° C. and 75% RH (reactivity); format: physicochemical
Procedure: (§1) For powder of trehalose or a pharmaceutical composition containing trehalose, values of L, a and b were measured with a color analyzer (TC-1800MKII, mfd. by Tokyo Denshoku Co., Ltd.), and the whiteness of the trehalose or pharmaceutical composition was calculated by the following equation: […]
One gram of each of the trehaloses obtained in Example 1 and 1 g of isoniazid were mixed and then allowed to stand in an atmosphere of 40° C. and 75% RH, and the change in whiteness of the trehalose was observed. On the other hand, 1 g of each of the trehaloses obtained in Example 1 and 1 g of aminophyline were mixed and then allowed to stand in an atmosphere of 40° C. and 75% RH, and the change in whiteness of the trehalose was observed.
One gram of 100-mesh lactose (available from De Melkindustrie Veghel bv) or 1 g of Mannit S (available from Tohwa Kasei Co., Ltd.) and 1 g of aminophyline were mixed and then allowed to stand in an atmosphere of 40° C. and 75% RH, and the change in whiteness of the lactose or Mannit S was observed.
As a starting material. […]

[4] = Proportion of particles of 75 μm or more (Air Jet Sieve); format: physicochemical; settings: excipient powder
Procedure: Five grams of trehalose was weighed onto a screen having a screen opening of 75 μm, and sifted with Air Jet Sieve (Model 200LS, mfd. by ALPINE) for 5 minutes, and the weight percentage of the weight of particles remaining on the screen based on the total weight of particles was calculated as the proportion of particles of 75 μm or more.

[5] = Angle of repose (Sugiwara's instrument); format: physicochemical; settings: excipient powder
From the text: Measured by means of a Sugiwara's instrument for measuring angle of repose (Yakuzaigaku 27, p. 260, 1965).

[6] = Disintegration time according to Japanese Pharmacopoeia; format: physicochemical; settings: listed as C
Procedure: The disintegration time of each of six molded products was measured by the use of ion-exchanged water according to the disintegration time measuring method prescribed in the 13th revised Japanese Pharmacopoeia, and the average of measured values was calculated.

[7] = Whiteness of powder (color analyzer); format: physicochemical; settings: excipient powder
Procedure: as §1

[8] = Tablet hardness (Schleuniger hardness meter); format: physicochemical; settings: for Tablet hardness at a compression pressure of 1000 kg/cm^2: phenacetin granules
[9] = Water content (Karl Fisher) of tablets before and after storage; format: physicochemical; settings: tablets compressed at 500 kg/cm^2, 0 day
Procedure: Determined as a value obtained by measuring about 0.1 g of trehalose and determining its water content by the Karl Fisher method.
One hundred grams of commercial “Trehaose” (available from Hayashibara Biochemical Laboratories, Inc.) was dissolved in water to a concentration of about 35 wt %, and the resulting solution was concentrated under reduced pressure with heating at 60° C. so as to have a concentration of about 75 wt %, and allowed to stand at room temperature to precipitate crystals, which were washed with 50 ml of water. Glucose was removed by carrying out the above purification procedure once or twice, to increase the trehalose purity. Trehalose A was obtained by carrying out the purification procedure twice to obtain crystals, drying the crystals, grinding the dried crystals with a bantam mill (number of revolutions 15,000 rpm, feed rate 5 kg/hr, and screen opening 2.0 mmφ), and then sifting the ground crystals through a […]. Trehalose B was obtained by carrying out the purification procedure once to obtain crystals, drying the crystals, grinding the dried crystals with a bantam mill (number of revolutions 10,000 rpm, feed rate 5 kg/hr, and screen opening 2.00 mmφ), and then sifting the ground crystals through a 350-μm screen. Trehalose C was obtained by carrying out the purification procedure once to obtain crystals, drying the crystals, grinding the dried crystals with a bantam mill (number of revolutions 8,000 rpm, feed rate 5 kg/hr, and screen opening 2.0 mmφ), and then sifting the ground crystals through a 350-μm screen. […] Each of trehaloses A to C was compressed into tablets at a compression pressure of 500 kg/cm^2, and the tablet hardness immediately after the compression and the tablet hardness after standing for 3 days in an atmosphere of 40° C. and 75% RH after the compression were compared.
“Trehaose” (available from Hayashibara Bioscience Laboratories Co., Ltd.) was purified once by the method described in Example 1 to obtain crystals, which were dried, ground with a bantam mill (number of revolutions 12,000 rpm, feed rate 5 kg/hr, and screen opening 2.0 mmφ) and then dried at 105° C. for 4 hours to obtain trehalose anhydrous crystals. These crystals were compressed into tablets at a compression pressure of 500 kg/cm^2, and the tablet hardnesses of the tablets were compared in the same manner as in Example 1.

[10] = Wet granulation of phenacetin mixture with HPC binder solution: granule size and yield
[11] = 1 g excipient + 1 g aminophyline, 0 day
[12] = 1 g excipient + 1 g aminophyline, 40° C. and 75% RH, 5 days

## OC[C@H]1O[C@@H](O[C@H]2[C@H](O)[C@@H](O)C(O)O[C@@H]2CO)[C@H](O)[C@@H](O)[C@H]1O (some centres unmarked) [100-Mesh lactose, lactose, reference compound]
[1]
  Average particle size: 104 μm
[2]
  Apparent specific volume: 1.5 cm^3/g
[3]; [11]
  Whiteness: 99%
[3]; [12]
  Whiteness: 30%
[4]
  Proportion of particles of 75 μm or more: 76%
[5]
  Angle of repose: 43 °

## OC[C@@H](O)[C@@H](O)[C@H](O)[C@H](O)CO [Mannit S, reference compound]
[1]; listed as Mannit 5
  Average particle size: 102 μm
[2]; listed as Mannit 5
  Apparent specific volume: 1.7 cm^3/g
[3]; [11]
  Whiteness: 100%
[3]; 1 g excipient + 1 g aminophyline, 40° C. and 75% RH, 1 month
  Whiteness: 93%
[3]; [12]
  Whiteness: 98%
[4]; listed as Mannit 5
  Proportion of particles of 75 μm or more: 68%
[5]; listed as Mannit 5
  Angle of repose: 53 °

## OC[C@H]1O[C@H](O[C@H]2O[C@H](CO)[C@@H](O)[C@H](O)[C@H]2O)[C@H](O)[C@@H](O)[C@@H]1O [Trehalose C, trehalose]
[6]; Example 8: molded product of trehalose only, 30 kg/cm^2
  Disintegration time according to Japanese Pharmacopoeia: 10 s
[6]; Example 10: as Example 9 but molded at 60 kg/cm^2
  Disintegration time according to Japanese Pharmacopoeia: 33 s
[6]; process of Example 9: 950 g excipient + 50 g phenylpropanolamine hydrochloride, 30 kg/cm^2
  Disintegration time according to Japanese Pharmacopoeia: 10 s
[1]; listed as C
  Average particle size: 127 μm
[7]; listed as C
  Whiteness: 95%
[8]; Example 8: molded product of trehalose only, molded at 30 kg/cm^2, dried overnight at 40° C., listed as C
  Tablet hardness: 6.0 kg
[8]; Example 10: as Example 9 but molded at 60 kg/cm^2, listed as C
  Tablet hardness: 8.6 kg
[8]; process of Example 9: 950 g excipient + 50 g phenylpropanolamine hydrochloride, molded at 30 kg/cm^2, listed as C
  Tablet hardness: 5.6 kg
[8]; tablets compressed at 500 kg/cm^2, 0 day (immediately after compression), listed as C
  Tablet hardness: 2.3 kgf
[8]; tablets compressed at 500 kg/cm^2, 3 days at 40° C. and 75% RH, listed as C
  Tablet hardness: 2.3 kgf
[9]; listed as C
  Water content: 9.8%
[2]; listed as C
  Apparent specific volume: 1.9 cm^3/g
[3]; 1 g excipient + 1 g aminophyline, 0 day, listed as C
  Whiteness: 98%
[3]; 1 g excipient + 1 g aminophyline, 40° C. and 75% RH, 1 month, listed as C
  Whiteness: 93%
[3]; 1 g excipient + 1 g isoniazid, 0 day, listed as C
  Whiteness: 97%
[3]; 1 g excipient + 1 g isoniazid, 40° C. and 75% RH, 1 month, listed as C
  Whiteness: 93%
[4]; listed as C
  Proportion of particles of 75 μm or more: 73%
[5]; listed as C
  Angle of repose: 40 °

## OC[C@H]1O[C@H](O[C@H]2O[C@H](CO)[C@@H](O)[C@H](O)[C@H]2O)[C@H](O)[C@@H](O)[C@@H]1O [Trehalose D, trehalose]
[1]; listed as D
  Average particle size: 12 μm
[7]; listed as D
  Whiteness: 96%
[8]; binding solution 100 g
  Tablet hardness at a compression pressure of 1000 kg/cm^2: 4.5 kgf
[8]; binding solution 120 g
  Tablet hardness at a compression pressure of 1000 kg/cm^2: 4.1 kgf
[8]; binding solution 160 g
  Tablet hardness at a compression pressure of 1000 kg/cm^2: 3.0 kgf
[10]; phenacetin 50/excipient 30/corn starch 10/microcrystalline cellulose 10, binding solution 100 g
  Average particle size of granules: 80 μm
[10]; phenacetin granules, binding solution 120 g
  Average particle size of granules: 121 μm
[10]; phenacetin granules, binding solution 160 g
  Average particle size of granules: 205 μm
[2]; listed as D
  Apparent specific volume: 4.5 cm^3/g
[4]; listed as D
  Proportion of particles of 75 μm or more: 1%
[5]; listed as D
  Angle of repose: 65 °
[5]; listed as trehalose D
  Angle of repose: 65 °

## OC[C@H]1O[C@H](O[C@H]2O[C@H](CO)[C@@H](O)[C@H](O)[C@H]2O)[C@H](O)[C@@H](O)[C@@H]1O [Trehalose E, trehalose]
[1]; listed as E
  Average particle size: 25 μm
[7]; listed as E
  Whiteness: 96%
[2]; listed as E
  Apparent specific volume: 3.7 cm^3/g
[4]; listed as E
  Proportion of particles of 75 μm or more: 3%
[5]; listed as E
  Angle of repose: 55 °
[5]; listed as trehalose E
  Angle of repose: more than 50 °

## OC[C@H]1O[C@H](O[C@H]2O[C@H](CO)[C@@H](O)[C@H](O)[C@H]2O)[C@H](O)[C@@H](O)[C@@H]1O [Trehalose F, trehalose]
[1]; listed as F
  Average particle size: 49 μm
[7]; listed as F
  Whiteness: 94%
[8]; tablets compressed at 500 kg/cm^2, 0 day (immediately after compression), listed as F
  Tablet hardness: 4.5 kgf
[9]; listed as F
  Water content: 0.5%
[2]; listed as F
  Apparent specific volume: 2.3 cm^3/g
[4]; listed as F
  Proportion of particles of 75 μm or more: 28%
[5]; listed as F
  Angle of repose: 45 °

## OC[C@H]1O[C@H](O[C@H]2O[C@H](CO)[C@@H](O)[C@H](O)[C@H]2O)[C@H](O)[C@@H](O)[C@@H]1O [Trehalose G, trehalose]
[1]; listed as G
  Average particle size: 31 μm
[7]; listed as G
  Whiteness: 94%
[2]; listed as G
  Apparent specific volume: 3.1 cm^3/g
[3]; same manner as in Example 2 (drug not stated), 0 day
  Whiteness: 94%
[3]; same manner as in Example 2 (drug not stated), 40° C. and 75% RH, 1 month, listed as G
  Whiteness: 87%
[3]; same manner as in Example 2 (drug not stated), 40° C. and 75% RH, 1 month, listed as trehalose G
  Whiteness: less than 90%
[4]; listed as G
  Proportion of particles of 75 μm or more: 13%
[5]; listed as G
  Angle of repose: 49 °

## OC[C@H]1O[C@H](O[C@H]2O[C@H](CO)[C@@H](O)[C@H](O)[C@H]2O)[C@H](O)[C@@H](O)[C@@H]1O [Trehalose H, trehalose]
[1]
  Average particle size: 180 μm
[7]
  Whiteness: 98%
[2]
  Apparent specific volume: 1.5 cm^3/g
[4]
  Proportion of particles of 75 μm or more: 91%
[5]
  Angle of repose: 37 °

## OC[C@H]1O[C@H](O[C@H]2O[C@H](CO)[C@@H](O)[C@H](O)[C@H]2O)[C@H](O)[C@@H](O)[C@@H]1O [Trehalose I, trehalose]
[1]
  Average particle size: 280 μm
[7]
  Whiteness: 96%
[2]
  Apparent specific volume: 1.4 cm^3/g
[4]
  Proportion of particles of 75 μm or more: 95%
[5]
  Angle of repose: 30 °

## OC[C@H]1O[C@H](O[C@H]2O[C@H](CO)[C@@H](O)[C@H](O)[C@H]2O)[C@H](O)[C@@H](O)[C@@H]1O [Trehalose L, trehalose]
[1]; listed as L
  Average particle size: 45 μm
[7]; listed as L
  Whiteness: 95%
[2]; listed as L
  Apparent specific volume: 2.5 mL/g
[4]; listed as L
  Proportion of particles of 75 μm or more: 25%

## OC[C@H]1O[C@H](O[C@H]2O[C@H](CO)[C@@H](O)[C@H](O)[C@H]2O)[C@H](O)[C@@H](O)[C@@H]1O [Trehalose M, trehalose]
[1]; listed as M
  Average particle size: 8 μm
[7]; listed as M
  Whiteness: 97%
[2]; listed as M
  Apparent specific volume: 3.8 mL/g
[4]; listed as M
  Proportion of particles of 75 μm or more: 1%

## OC[C@H]1O[C@H](O[C@H]2O[C@H](CO)[C@@H](O)[C@H](O)[C@H]2O)[C@H](O)[C@@H](O)[C@@H]1O [Trehalose N, trehalose]
[1]; listed as N
  Average particle size: 70 μm
[7]; listed as N
  Whiteness: 88%
[2]; listed as N
  Apparent specific volume: 2.2 mL/g
[4]; listed as N
  Proportion of particles of 75 μm or more: 45%
